This note sets out measurements from US20080221056A1, “Early Detection and Prognosis of Colon Cancers” (JOHNS HOPKINS UNIVERSITY, priority 2007, published 2008).

Structures are written as SMILES.

The assay concerns HCT116 cells. As to the kind of experiment: Whole transcriptome microarray of gene re-expression in drug-treated CRC cells (11 hypermethylated guide genes). The assay is classed as cell-based, human. Here is the method:
Cell culture and treatment. HCT116 cells and isogenic genetic knockout derivatives were maintained as previously described (14). For drug treatments, log phase CRC cells were cultured in McCoys 5A media (Invitrogen) containing 10% BCS and 1× penicillin/streptomycin with 5 μM 5aza-deoxycytidine (DAC) (Sigma; stock solution: 1 mM in PBS) for 96 hours, replacing media and DAC every 24 hours. Cell treatment with 300 nM Trichostatin A (Sigma; stock solution: 1.5 mM dissolved in ethanol) was performed for 18 hours. Control cells underwent mock treatment in parallel with addition of equal volume of PBS or ethanol without drugs.
Microarray analysis. Total RNA was harvested from log phase cells using Triazol (Invitrogen) and the RNeasy kit (Qiagen) according to the manufacturers instructions, including a DNAase digestion step. RNA was quantified using the Nanoprop ND-100 followed by quality assessment with 2100 Bioanalyzer (Agilent Technologies). RNA concentrations for individual samples were greater than 200 ng/ul, with 28s/18s ratios greater than 2.2 and RNA integrity of 10 (10 scored as the highest). Sample amplification and labeling procedures were carried out using the Low RNA Input Fluorescent Linear Amplification Kit (Agilent Technologies) according to the manufacturers instructions. The labeled cRNA was purified using the RNeasy mini kit (Qiagen) and quantified. RNA spike-in controls (Agilent Technologies) were added to RNA samples before amplification. 0.75 microgram of samples labeled with Cy3 or Cy5 were mixed with control targets (Agilent Technologies), assembled on Oligo Microarray, hybridized, and processed according to the Agilent microarray protocol. Scanning was performed with the Agilent G2565BA microarray scanner using settings recommended by Agilent Technologies.
Data analysis. All arrays were subject to quality checks recommended by the manufacturer. […] The log ratio of red signal to green signal was calculated after background-subtraction and LoEss normalization as implemented in the limma package from Bioconductor (25,26). […]

With `Nc1ncn([C@H]2C[C@H](O)[C@@H](CO)O2)c(=O)n1` [DAC, 5-aza-2′-deoxycytidine], the “guide genes increased 1.3 fold or more (total)” value (5 μM DAC for 96 hours, 11 known hypermethylated, silenced guide genes) is reported as 73%. Also, where the note is “5 μM DAC for 96 hours, 11 known hypermethylated, silenced guide genes (5 of 11)”, the “guide genes increased 2-fold or more” value is 45%.
Consider `CC(/C=C/C(=O)NO)=C\[C@@H](C)C(=O)c1ccc(N(C)C)cc1` [TSA, trichostatin A], for which the “response of guide gene expression to TSA” value (300 nM Trichostatin A for 18 hours, zone = expression increase <1.4 fold) was “All tested genes remained within the TSA non-responsive zone”.
